Usually IC50 stands for the midpoint of a concentration-inhibition curve.

Each structure is given as a SMILES string. Counter-ions that a name gives are not always drawn. Like-named read-outs stand apart in the source and are kept apart here.

What all share (type): biochemical
One test has as its target TYK2 (Homo sapiens, UniProt P29597). Nature of the test: TYK2 kinase inhibition (Table A1).
In test [1] the target is T1, Recombinant Human Anaplastic Lymphoma Kinase (Homo sapiens, UniProt Q9UM73).
T1 construct: purchased Invitrogen, Carlsbad, Calif
Nature of the test: ALK HTRF kinase assay. The method, boiled down:
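Recombinant human ALK phosphorylated a biotinylated synthetic peptide. Phosphotyrosine was detected by TR-FRET between a Eu-labelled anti-phosphotyrosine antibody and streptavidin-allophycocyanin. IC50 values came from fitting signal against inhibitor concentration to a four-parameter logistic equation with variable Hill slope.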
Background: TR-FRET usually uses a lanthanide donor and a delayed reading to cut background.

In test [2] the target is T2, human JAK3 (a.a. 781-1124) (Homo sapiens, UniProt P52333).
T2 construct: JAK3 (a.a. 781-1124); His tag (N); made in house; host or cells: insect cells (baculovirus)
Nature of the test: In vitro JAK kinase assay (HTRF, phosphorylation of a biotinylated peptide), JAK3. The method, boiled down:
(§1)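 Kinase activity was measured as phosphorylation of a biotinylated peptide, with ATP at 90 μM for JAK1, 30 μM for JAK2 and 3 μM for JAK3. Reactions ran 1 hr at room temperature, were stopped with EDTA plus SA-APC and Eu-Py20, and were read by HTRF after 40 minutes of antibody binding.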

In test [3] the target is T3, human JAK2 (a.a. 828-1132) (Homo sapiens, UniProt O60674).
T3 construct: JAK2 (a.a. 828-1132); His tag (N); made in house; host or cells: insect cells (baculovirus)
Nature of the test: In vitro JAK kinase assay (HTRF, phosphorylation of a biotinylated peptide), JAK2. The essentials:
as §1

Test [4] addresses T4, human JAK1 (a.a. 837-1142) (Homo sapiens, UniProt P23458).
T4 construct: human JAK1 (a.a. 837-1142); His tag (N); made in house; host or cells: insect cells (baculovirus)
Nature of the test: In vitro JAK kinase assay (HTRF, phosphorylation of a biotinylated peptide), JAK1. Conditions: read-out: JAK1 IC50. The method, boiled down:
as §1

[5] abbreviates: percentage inhibition of the example compound at a concentration of 500 nM or 1 mM (not specified which).
Where [6] appears, read: compound at a concentration of 500 nM or 1 mM (not specified), cells shown as percentage.
Where [7] appears, read: compound at 500 nM or 1 mM, 90 μM ATP.
Where [8] appears, read: method AA1 (3 μM ATP) or AA2 (1000 μM ATP), not stated per value.
Setting [9] is: method AA1 (30 μM ATP) or AA2 (1000 μM ATP), not stated per value.
The mark [10] stands for this setting: method AA1 (90 μM ATP) or AA2 (1000 μM ATP), not stated per value.

T1 sequence (Q9UM73 19-1620): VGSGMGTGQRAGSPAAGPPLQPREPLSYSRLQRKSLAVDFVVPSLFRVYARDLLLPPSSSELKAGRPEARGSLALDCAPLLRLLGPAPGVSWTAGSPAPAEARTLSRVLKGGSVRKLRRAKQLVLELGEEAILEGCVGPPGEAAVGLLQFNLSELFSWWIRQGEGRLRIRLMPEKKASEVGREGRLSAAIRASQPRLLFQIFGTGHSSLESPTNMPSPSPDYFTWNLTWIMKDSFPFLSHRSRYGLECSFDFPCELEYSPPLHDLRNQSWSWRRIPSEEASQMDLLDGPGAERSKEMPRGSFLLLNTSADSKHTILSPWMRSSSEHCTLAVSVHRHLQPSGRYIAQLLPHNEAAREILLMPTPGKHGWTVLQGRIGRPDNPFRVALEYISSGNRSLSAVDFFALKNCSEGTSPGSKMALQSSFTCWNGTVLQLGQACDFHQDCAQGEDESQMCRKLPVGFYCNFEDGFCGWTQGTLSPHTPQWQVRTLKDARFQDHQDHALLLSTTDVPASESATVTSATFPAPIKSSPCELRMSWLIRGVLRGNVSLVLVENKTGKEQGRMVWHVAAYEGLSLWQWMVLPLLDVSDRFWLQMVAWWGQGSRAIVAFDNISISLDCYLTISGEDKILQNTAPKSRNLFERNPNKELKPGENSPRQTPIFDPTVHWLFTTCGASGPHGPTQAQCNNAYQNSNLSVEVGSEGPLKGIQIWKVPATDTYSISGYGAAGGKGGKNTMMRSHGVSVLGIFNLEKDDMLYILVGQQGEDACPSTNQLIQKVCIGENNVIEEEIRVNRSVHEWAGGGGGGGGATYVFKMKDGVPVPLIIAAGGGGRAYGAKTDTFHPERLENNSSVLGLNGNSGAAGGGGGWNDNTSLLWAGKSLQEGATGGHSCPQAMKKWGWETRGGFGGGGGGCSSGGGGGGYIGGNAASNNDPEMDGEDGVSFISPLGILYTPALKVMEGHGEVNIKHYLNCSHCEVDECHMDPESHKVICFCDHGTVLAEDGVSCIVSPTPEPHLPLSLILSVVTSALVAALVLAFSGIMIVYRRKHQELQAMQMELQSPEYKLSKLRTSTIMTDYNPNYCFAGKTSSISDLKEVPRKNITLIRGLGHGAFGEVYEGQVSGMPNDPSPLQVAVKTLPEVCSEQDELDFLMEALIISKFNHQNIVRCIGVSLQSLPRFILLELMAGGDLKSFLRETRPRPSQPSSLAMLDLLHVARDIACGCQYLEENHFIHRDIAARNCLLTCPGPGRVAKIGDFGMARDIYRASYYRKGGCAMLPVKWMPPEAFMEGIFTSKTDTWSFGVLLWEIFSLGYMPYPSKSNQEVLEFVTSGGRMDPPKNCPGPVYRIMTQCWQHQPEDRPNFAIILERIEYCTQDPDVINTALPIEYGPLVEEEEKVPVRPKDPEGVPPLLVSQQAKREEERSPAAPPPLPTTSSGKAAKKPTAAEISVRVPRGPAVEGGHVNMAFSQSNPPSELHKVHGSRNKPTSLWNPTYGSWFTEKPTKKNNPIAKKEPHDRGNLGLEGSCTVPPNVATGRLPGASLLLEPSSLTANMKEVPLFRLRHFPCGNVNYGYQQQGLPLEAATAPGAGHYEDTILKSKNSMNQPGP
T3 sequence (O60674 828-1132): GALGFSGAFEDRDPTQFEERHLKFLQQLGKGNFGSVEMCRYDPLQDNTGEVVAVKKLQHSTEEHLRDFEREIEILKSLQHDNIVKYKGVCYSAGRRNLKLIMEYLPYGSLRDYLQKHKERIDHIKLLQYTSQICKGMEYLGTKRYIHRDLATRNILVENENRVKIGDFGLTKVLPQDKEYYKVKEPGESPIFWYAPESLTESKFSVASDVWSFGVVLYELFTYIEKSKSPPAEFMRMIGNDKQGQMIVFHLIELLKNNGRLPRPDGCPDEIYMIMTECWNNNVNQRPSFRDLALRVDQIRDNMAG
T2 sequence (P52333 781-1124): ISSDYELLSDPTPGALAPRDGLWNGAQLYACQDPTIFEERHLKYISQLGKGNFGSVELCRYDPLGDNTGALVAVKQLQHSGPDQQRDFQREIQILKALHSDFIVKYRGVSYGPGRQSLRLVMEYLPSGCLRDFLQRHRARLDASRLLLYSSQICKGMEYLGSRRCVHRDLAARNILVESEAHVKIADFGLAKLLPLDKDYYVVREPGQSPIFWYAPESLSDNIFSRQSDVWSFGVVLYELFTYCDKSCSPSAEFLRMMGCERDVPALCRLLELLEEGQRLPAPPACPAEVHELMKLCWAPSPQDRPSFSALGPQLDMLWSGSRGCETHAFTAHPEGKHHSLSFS
T4 sequence (P23458 849-1154): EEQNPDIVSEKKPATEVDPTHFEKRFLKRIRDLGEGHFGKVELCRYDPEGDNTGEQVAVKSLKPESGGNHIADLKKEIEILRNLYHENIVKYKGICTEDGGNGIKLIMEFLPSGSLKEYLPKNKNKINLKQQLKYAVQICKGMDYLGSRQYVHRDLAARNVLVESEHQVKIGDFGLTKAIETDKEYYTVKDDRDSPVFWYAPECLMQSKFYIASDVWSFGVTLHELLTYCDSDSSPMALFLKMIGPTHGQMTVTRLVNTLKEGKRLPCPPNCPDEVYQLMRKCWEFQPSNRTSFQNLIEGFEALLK
Sequence of TYK2 (P29597 whole entry): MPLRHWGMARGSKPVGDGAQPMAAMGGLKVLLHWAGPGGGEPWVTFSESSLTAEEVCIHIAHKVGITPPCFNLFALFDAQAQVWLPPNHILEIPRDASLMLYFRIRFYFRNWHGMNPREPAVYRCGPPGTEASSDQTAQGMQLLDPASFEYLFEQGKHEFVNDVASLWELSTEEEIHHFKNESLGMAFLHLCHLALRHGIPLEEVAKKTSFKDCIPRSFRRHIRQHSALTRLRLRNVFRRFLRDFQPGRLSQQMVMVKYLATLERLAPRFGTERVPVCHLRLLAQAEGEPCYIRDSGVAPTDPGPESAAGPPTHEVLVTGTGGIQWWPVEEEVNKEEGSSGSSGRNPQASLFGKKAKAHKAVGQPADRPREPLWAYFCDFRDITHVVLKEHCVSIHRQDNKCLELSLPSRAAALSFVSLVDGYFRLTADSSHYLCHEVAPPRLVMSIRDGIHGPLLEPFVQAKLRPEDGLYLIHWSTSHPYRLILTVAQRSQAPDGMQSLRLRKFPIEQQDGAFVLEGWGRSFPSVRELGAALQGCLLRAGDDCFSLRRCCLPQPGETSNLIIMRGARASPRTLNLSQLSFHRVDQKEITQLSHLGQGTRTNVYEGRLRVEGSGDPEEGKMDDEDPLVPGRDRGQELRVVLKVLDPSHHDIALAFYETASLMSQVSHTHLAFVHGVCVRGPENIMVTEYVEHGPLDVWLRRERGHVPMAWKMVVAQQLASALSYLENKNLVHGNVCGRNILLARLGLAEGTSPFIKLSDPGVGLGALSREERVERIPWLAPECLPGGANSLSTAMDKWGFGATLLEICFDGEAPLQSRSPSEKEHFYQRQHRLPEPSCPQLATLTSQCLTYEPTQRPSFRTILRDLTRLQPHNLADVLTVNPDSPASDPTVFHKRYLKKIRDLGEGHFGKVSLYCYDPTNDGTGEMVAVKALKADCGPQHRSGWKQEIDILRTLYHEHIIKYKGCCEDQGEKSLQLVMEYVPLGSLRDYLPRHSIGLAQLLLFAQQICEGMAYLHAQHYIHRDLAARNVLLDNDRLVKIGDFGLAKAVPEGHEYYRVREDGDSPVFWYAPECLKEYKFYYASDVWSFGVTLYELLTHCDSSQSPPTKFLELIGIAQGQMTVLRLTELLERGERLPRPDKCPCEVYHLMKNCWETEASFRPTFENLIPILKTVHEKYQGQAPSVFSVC

Turning to `N#CC1(c2ccccc2)CCN(C(=O)Nc2ccc3cc2CCc2cncc(c2)Nc2ncc(Cl)c(n2)N3)CC1` [Example B322, N-[6-Chloro-2,4,8,18,22-pentaazatetracyclo[14.3.1.1(3,7).1(9,13)]docosa-1(20),3(22),4,6,9(21),10,12,16,18-nonaen-12-yl]-4-cyano-4-phenylpiperidine-1-carboxamide bis(trifluoroacetate)], the IC50 is 160 nM against TYK2 (Table B1), over 400 nM in test [2] (Table B1), 313 nM in test [3] (Table B1) and 32 nM in test [4] (Table B1). Further, the “ALK % of inhibition at a concentration of 500 nM or 1 mM” value (shortened to “ALK % of inhibition”) in test [1] (setting [5]) stood at 74%.

Take `O=S(=O)(Nc1ccc2cc1CCc1cccc(c1)Nc1ncc(Cl)c(n1)N2)c1cccc(C(F)(F)F)c1` [Example B163, N-[6-Chloro-2,4,8,22-tetraazatetracyclo[14.3.1.1(3,7).1(9,13)]docosa-1(20), 3(22),4,6,9(21),10,12,16,18-nonaen-12-yl]-3-(trifluoromethyl)benzenesulfonamide trifluoroacetate]: the IC50 amounted to 0.97 nM against TYK2 (Table B1), 1.1 nM in test [2] (Table B1), 0.24 nM in test [3] (Table B1) and 0.54 nM in test [4] (Table B1). For the same compound, the “ALK % of inhibition” value in test [1] (setting [6]) amounted to 80%.

Regarding `CC(=O)N1CCN(c2cc(-c3cc4cc(c3)Nc3ncc(Cl)c(n3)Nc3cccc(c3)OCC4)ccn2)CC1` [Example D35, 19-[2-(4-Acetylpiperazin-1-yl)pyridin-4-yl]-6-chloro-14-oxa-2,4,8,23-tetraazatetracyclo[15.3.1.1(3,7).1(9,13)]tricosa-1(21),3(23),4,6,9(22),10,12,17,19-nonaene bis(trifluoroacetate)], the IC50 at TYK2 (Table D1) came to 4.3 nM; in test [1] (Table D1, 90 μM ATP), 150 nM; in test [2] (Table D1) it was 7.7 nM; in test [3] (Table D1), 0.4 nM; in test [4] (Table D1), 0.7 nM.

Consider `O=C(CC1CCN(C(=O)c2cnccn2)CC1)Nc1ccc2cc1CCc1cccc(c1)Nc1ncc(Cl)c(n1)N2` [Example A87, N-[6-Chloro-2,4,8,22-tetraazatetracyclo[14.3.1.1(3,7).1(9,13)]docosa-1(20),3(22),4,6,9(21),10,12,16,18-nonaen-12-yl]-2-[1-(pyrazin-2-ylcarbonyl)piperidin-4-yl]acetamide bis(trifluoroacetate)], for which the IC50 was determined as 12 nM on TYK2, 56 nM in test [2] (setting [8]), 9.8 nM in test [3] (setting [9]) and 14 nM in test [4] (setting [10]). The “ALK % of inhibition” value in test [1] (setting [7]) was determined as 31%.

With `O=C(Nc1ccc2cc1CCc1cncc(c1)Nc1ncc(Cl)c(n1)N2)N1CCN(S(=O)(=O)c2ccccc2)CC1` [Example B319, N-[6-Chloro-2,4,8,18,22-pentaazatetracyclo[14.3.1.1(3,7).1(9,13)]docosa-1(20),3(22),4,6,9(21),10,12,16,18-nonaen-12-yl]-4-(phenylsulfonyl)piperazine-1-carboxamide bis(trifluoroacetate)], the IC50 at TYK2 (Table B1) is 288 nM; in test [2] (Table B1), over 400 nM; in test [3] (Table B1), over 400 nM; in test [4] (Table B1), 42 nM. Besides, the “ALK % of inhibition” value in test [1] (setting [5]) stood at 58%.

As for `Cc1nc(C)c(S(=O)(=O)N2CCC(CC(=O)Nc3ccc4cc3CCc3cncc(c3)Nc3ncc(Cl)c(n3)N4)CC2)s1` [Example A232, N-[6-Chloro-2,4,8,18,22-pentaazatetracyclo[14.3.1.1(3,7).1(9,13)]docosa-1(20),3(22),4,6,9(21),10,12,16,18-nonaen-12-yl]-2-{1-[(2,4-dimethyl-1,3-thiazol-5-yl)sulfonyl]piperidin-4-yl}acetamide bis(trifluoroacetate)], the 50% inhibitory concentration (IC50) is 326 nM against TYK2, over 400 nM in test [2] (setting [8]), 94 nM in test [3] (setting [9]) and 12 nM in test [4] (setting [10]). Moreover, the “ALK % of inhibition” value in test [1] (setting [7]) is recorded as 43%.

`O=C(CC1CCN(C(=O)c2ccncc2)CC1)Nc1ccc2cc1CCc1cccc(c1)Nc1ncc(Cl)c(n1)N2` [Example A185, N-[6-Chloro-2,4,8,22-tetraazatetracyclo[14.3.1.1(3,7).1(9,13)]docosa-1(20),3(22),4,6,9(21),10,12,16,18-nonaen-12-yl]-2-(1-isonicotinoylpiperidin-4-yl)acetamide bis(trifluoroacetate)]: the IC50 is over 200 nM at TYK2, over 200 nM in test [2] (setting [8]), over 200 nM in test [3] (setting [9]) and 62 nM in test [4] (setting [10]). Moreover, in test [1] (setting [7]), the “ALK % of inhibition” value is reported as 33%.

For `Cn1ccc(C(=O)N2CC[C@H](NC(=O)Nc3ccc4cc3CCc3cncc(c3)Nc3ncc(Cl)c(n3)N4)C2)n1` [Example B272, N-[6-Chloro-2,4,8,18,22-pentaazatetracyclo[14.3.1.1(3,7).1(9,13)]docosa-1(20),3(22),4,6,9(21),10,12,16,18-nonaen-12-yl]-N′-{(3S)-1-[(1-methyl-1H-pyrazol-3-yl)carbonyl]pyrrolidin-3-yl}urea bis(trifluoroacetate)], the IC50 was 575 nM at TYK2 (Table B1), over 10000 nM in test [2] (Table B1), 316 nM in test [3] (Table B1) and 14 nM in test [4] (Table B1). Further, the “ALK % of inhibition” value in test [1] (setting [6]) worked out at 23%.

Turning to `O=C1Cc2cccc(c2)Nc2ncc(Cl)c(n2)Nc2cccc(c2)N1` [Example C10, 6-Chloro-2,4,8,14,23-pentaazatetracyclo[15.3.1.1(3,7).1(9,13)]tricosa-1(21),3(23),4,6,9(22),10,12,17,19-nonaen-15-one trifluoroacetate], the IC50 against TYK2 was 60 nM; in test [1], over 10000 nM; in test [2] it was over 1000 nM; in test [3], 303 nM; in test [4], 154 nM.

For `NS(=O)(=O)N1CCC(CC(=O)Nc2ccc3cc2CCc2cccc(c2)Nc2ncc(Cl)c(n2)N3)CC1` [Example A75, 2-[1-(Aminosulfonyl)piperidin-4-yl]-N-[6-chloro-2,4,8,22-tetraazatetracyclo[14.3.1.1(3,7).1(9,13)]docosa-1(20),3(22),4,6,9(21),10,12,16,18-nonaen-12-yl]acetamide trifluoroacetate], the IC50 stood at 0.3 nM against TYK2, 3.2 nM in test [2] (setting [8]), 0.2 nM in test [3] (setting [9]) and 0.2 nM in test [4] (setting [10]). In addition, in test [1] (setting [7]), the “ALK % of inhibition” value came to 51%.

For `O=C(Nc1ccc2cc1CCc1cccc(c1)Nc1ncc(Cl)c(n1)N2)Nc1cccc2ccccc12` [Example B124, N-[6-Chloro-2,4,8,22-tetraazatetracyclo[14.3.1.1(3,7).1(9,13)]docosa-1(20),3(22),4,6,9(21),10,12,16,18-nonaen-12-yl]-N′-1-naphthylurea trifluoroacetate], the IC50 on TYK2 (Table B1) was found to be 13 nM; in test [2] (Table B1), 33 nM; in test [3] (Table B1), 4.6 nM; in test [4] (Table B1), 3.9 nM. Besides, the “ALK % of inhibition” value in test [1] (setting [6]) was determined as 17%.

With `CS(=O)(=O)N1CCN(c2cc(-c3cc4cc(c3)Nc3ncc(Cl)c(n3)Nc3cccc(c3)OCC4)ccn2)CC1` [Example D36, 6-Chloro-19-{2-[4-(methylsulfonyl)piperazin-1-yl]pyridin-4-yl}-14-oxa-2,4,8,23-tetraazatetracyclo[15.3.1.1(3,7).1(9,13)]tricosa-1(21),3(23),4,6,9(22),10,12,17,19-nonaene bis(trifluoroacetate)], the IC50 was determined as 4.9 nM on TYK2 (Table D1); 225 nM in test [1] (Table D1, 90 μM ATP); 4.9 nM in test [2] (Table D1); 0.4 nM in test [3] (Table D1); 1.3 nM in test [4] (Table D1).

Take `CC(=O)N1CC[C@H](NC(=O)Nc2ccc3cc2CCc2cccc(c2)Nc2ncc(Cl)c(n2)N3)C1` [Example B168, N-[(3S)-1-Acetylpyrrolidin-3-yl]-N′-[6-chloro-2,4,8,22-tetraazatetracyclo[14.3.1.1(3,7).1(9,13)]docosa-1(20),3(22),4,6,9(21),10,12,16,18-nonaen-12-yl]urea trifluoroacetate]: the IC50 against TYK2 (Table B1) was 17 nM; in test [2] (Table B1), 67 nM; in test [3] (Table B1) it was 12 nM; in test [4] (Table B1) it was 2.8 nM. Moreover, the “ALK % of inhibition” value in test [1] (setting [6]) worked out at 21%.

For the compound `Clc1cnc2nc1Nc1ccc(Nc3nc4cccnc4o3)c(c1)CCc1cccc(c1)N2` [Example B333, 6-Chloro-N-[1,3]oxazolo[5,4-b]pyridin-2-yl-2,4,8,22-tetraazatetracyclo[14.3.1.1(3,7).1(9,13)]docosa-1(20),3(22),4,6,9(21),10,12,16,18-nonaen-12-amine tris(trifluoroacetate)], the IC50 on TYK2 (Table B1) was 1.2 nM; in test [2] (Table B1), 1 nM; in test [3] (Table B1), 15 nM; in test [4] (Table B1) it was 6.8 nM. For the same compound, the “ALK % of inhibition” value in test [1] (setting [5]) was found to be 55%.

The record behind these values is patent US8871753B2, “Macrocyclic compounds and their use as kinase inhibitors” (Incyte Corporation, priority 2008, dated 2014).
